Laboratory results from article PMC6009956, “Design, synthesis and biological activity of N^4-phenylsubstituted-7H-pyrrolo[2,3-d]pyrimidin-4-amines as dual inhibitors of aurora kinase A and epidermal growth factor receptor kinase” (Journal of Enzyme Inhibition and Medicinal Chemistry, 2017).
Read-outs that look alike come from different tables or passages of the source.

Assays:
aurora A kinase (AURKA) = target: T1, aurora A kinase (AURKA) (Homo sapiens, UniProt O14965); experiment: ADP-Glo kinase assay, Aurora A; assay type: biochemical
T1 construct: purchased BPS Bioscience (assay run externally by the vendor)
T1 sequence (O14965 1-403): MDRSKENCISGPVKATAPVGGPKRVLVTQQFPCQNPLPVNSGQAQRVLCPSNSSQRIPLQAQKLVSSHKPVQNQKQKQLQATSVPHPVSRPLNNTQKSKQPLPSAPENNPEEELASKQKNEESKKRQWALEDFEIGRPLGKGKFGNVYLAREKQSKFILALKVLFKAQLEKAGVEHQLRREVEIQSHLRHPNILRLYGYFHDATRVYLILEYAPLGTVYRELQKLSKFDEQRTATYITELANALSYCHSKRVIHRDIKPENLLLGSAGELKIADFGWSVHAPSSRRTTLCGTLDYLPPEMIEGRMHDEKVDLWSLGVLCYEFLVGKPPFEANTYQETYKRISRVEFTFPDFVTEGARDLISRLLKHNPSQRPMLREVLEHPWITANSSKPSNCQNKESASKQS

EGFR = EGFR (Homo sapiens, UniProt P00533); experiment: ADP-Glo kinase assay, EGFR; assay type: biochemical; parameters: purchased BPS Bioscience (assay run externally by the vendor)
Sequence of EGFR (P00533 25-1210): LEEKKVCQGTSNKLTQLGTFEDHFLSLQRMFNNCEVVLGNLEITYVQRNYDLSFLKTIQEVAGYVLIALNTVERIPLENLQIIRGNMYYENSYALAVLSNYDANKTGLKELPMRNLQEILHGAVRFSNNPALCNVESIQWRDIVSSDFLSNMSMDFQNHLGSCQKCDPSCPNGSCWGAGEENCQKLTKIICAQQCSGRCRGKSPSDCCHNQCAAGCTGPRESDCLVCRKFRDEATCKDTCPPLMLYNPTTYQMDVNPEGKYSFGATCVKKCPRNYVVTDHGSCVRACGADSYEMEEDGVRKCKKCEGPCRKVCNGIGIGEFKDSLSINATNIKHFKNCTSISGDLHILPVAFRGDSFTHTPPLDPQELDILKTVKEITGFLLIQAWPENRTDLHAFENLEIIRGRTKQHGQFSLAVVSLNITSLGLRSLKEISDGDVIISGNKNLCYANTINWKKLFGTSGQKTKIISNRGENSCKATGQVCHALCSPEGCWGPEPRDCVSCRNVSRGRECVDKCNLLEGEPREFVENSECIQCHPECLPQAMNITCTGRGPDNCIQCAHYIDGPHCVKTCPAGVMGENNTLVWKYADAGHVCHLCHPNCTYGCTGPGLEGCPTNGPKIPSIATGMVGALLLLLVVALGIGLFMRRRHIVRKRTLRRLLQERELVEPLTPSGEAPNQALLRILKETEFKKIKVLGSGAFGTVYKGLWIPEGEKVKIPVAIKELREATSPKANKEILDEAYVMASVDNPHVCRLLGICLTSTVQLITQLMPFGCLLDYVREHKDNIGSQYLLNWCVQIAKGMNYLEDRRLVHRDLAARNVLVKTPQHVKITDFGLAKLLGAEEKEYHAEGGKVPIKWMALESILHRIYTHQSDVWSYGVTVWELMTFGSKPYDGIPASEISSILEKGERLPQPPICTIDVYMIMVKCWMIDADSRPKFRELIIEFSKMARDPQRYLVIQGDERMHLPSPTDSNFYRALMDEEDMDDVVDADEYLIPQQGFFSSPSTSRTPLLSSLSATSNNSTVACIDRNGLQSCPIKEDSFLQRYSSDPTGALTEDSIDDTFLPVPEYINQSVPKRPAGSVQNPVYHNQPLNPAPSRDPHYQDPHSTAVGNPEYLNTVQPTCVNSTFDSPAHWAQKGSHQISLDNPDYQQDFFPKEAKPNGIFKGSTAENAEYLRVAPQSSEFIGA

- IC50 (aurora A kinase (AURKA); 10 µM ATP, triplicate, read-out: AURKA IC50 ± SD): 3.91 ± 0.11 µM
- IC50 (aurora A kinase (AURKA); 10 µM ATP/0.2 mg/ml Kemptide, read-out: Aurora A IC50 (dose-response curve, supplement)): 3.9 µM
- Aurora A % Activity Set1 (aurora A kinase (AURKA); Log[nM] 0): 95%
- Aurora A % Activity Set2 (aurora A kinase (AURKA); Log[nM] 0): 97%
- Aurora A % Activity Set3 (aurora A kinase (AURKA); Log[nM] 0): 103%
- Aurora A % Activity Set1 (aurora A kinase (AURKA); Log[nM] 1.0): 104%
- Aurora A % Activity Set2 (aurora A kinase (AURKA); Log[nM] 1.0): 95%
- Aurora A % Activity Set3 (aurora A kinase (AURKA); Log[nM] 1.0): 97%
- Aurora A % Activity Set1 (aurora A kinase (AURKA); Log[nM] 1.5): 98%
- Aurora A % Activity Set2 (aurora A kinase (AURKA); Log[nM] 1.5): 101%
- Aurora A % Activity Set3 (aurora A kinase (AURKA); Log[nM] 1.5): 102%
- Aurora A % Activity Set1 (aurora A kinase (AURKA); Log[nM] 2.0): 104%
- Aurora A % Activity Set2 (aurora A kinase (AURKA); Log[nM] 2.0): 107%
- Aurora A % Activity Set3 (aurora A kinase (AURKA); Log[nM] 2.0): 105%
- Aurora A % Activity Set1 (aurora A kinase (AURKA); Log[nM] 2.5): 103%
- Aurora A % Activity Set2 (aurora A kinase (AURKA); Log[nM] 2.5): 108%
- Aurora A % Activity Set3 (aurora A kinase (AURKA); Log[nM] 2.5): 106%
- Aurora A % Activity Set1 (aurora A kinase (AURKA); Log[nM] 3.0): 91%
- Aurora A % Activity Set2 (aurora A kinase (AURKA); Log[nM] 3.0): 104%
- Aurora A % Activity Set3 (aurora A kinase (AURKA); Log[nM] 3.0): 91%
- Aurora A % Activity Set1 (aurora A kinase (AURKA); Log[nM] 3.5): 55%
- Aurora A % Activity Set2 (aurora A kinase (AURKA); Log[nM] 3.5): 51%
- Aurora A % Activity Set3 (aurora A kinase (AURKA); Log[nM] 3.5): 58%
- Aurora A % Activity Set1 (aurora A kinase (AURKA); Log[nM] 4.0): 16%
- Aurora A % Activity Set2 (aurora A kinase (AURKA); Log[nM] 4.0): 21%
- Aurora A % Activity Set3 (aurora A kinase (AURKA); Log[nM] 4.0): 19%
- Aurora A % Activity Set1 (aurora A kinase (AURKA); Log[nM] 4.5): 11%
- Aurora A % Activity Set2 (aurora A kinase (AURKA); Log[nM] 4.5): 12%
- Aurora A % Activity Set3 (aurora A kinase (AURKA); Log[nM] 4.5): 11%
- Aurora A % Activity Set1 (aurora A kinase (AURKA); Log[nM] 5.0): 11%
- Aurora A % Activity Set2 (aurora A kinase (AURKA); Log[nM] 5.0): 12%
- Aurora A % Activity Set3 (aurora A kinase (AURKA); Log[nM] 5.0): 13%
- EGFR inhibition (in words) (EGFR): single-digit nanomolar EGFR inhibition
- IC50 (EGFR; 10 µM ATP, triplicate, read-out: EGFR IC50 ± SD): 0.0067 ± 0.00025 µM
- EGFR % Activity Set1 (EGFR; Log[nM] 0): 51%
- EGFR % Activity Set2 (EGFR; Log[nM] 0): 59%
- EGFR % Activity Set3 (EGFR; Log[nM] 0): 58%
- EGFR % Activity Set1 (EGFR; Log[nM] 1.0): 43%
- EGFR % Activity Set2 (EGFR; Log[nM] 1.0): 46%
- EGFR % Activity Set3 (EGFR; Log[nM] 1.0): 48%
- EGFR % Activity Set1 (EGFR; Log[nM] 1.5): 14%
- EGFR % Activity Set2 (EGFR; Log[nM] 1.5): 16%
- EGFR % Activity Set3 (EGFR; Log[nM] 1.5): 16%
- EGFR % Activity Set1 (EGFR; Log[nM] 2.0): 8%
- EGFR % Activity Set2 (EGFR; Log[nM] 2.0): 9%
- EGFR % Activity Set3 (EGFR; Log[nM] 2.0): 9%
- EGFR % Activity Set1 (EGFR; Log[nM] 2.5): 3%
- EGFR % Activity Set2 (EGFR; Log[nM] 2.5): 4%
- EGFR % Activity Set3 (EGFR; Log[nM] 2.5): 5%
- EGFR % Activity Set1 (EGFR; Log[nM] 3.0): 2%
- EGFR % Activity Set2 (EGFR; Log[nM] 3.0): 2%
- EGFR % Activity Set3 (EGFR; Log[nM] 3.0): 2%
- EGFR % Activity Set1 (EGFR; Log[nM] 3.5): 1%
- EGFR % Activity Set2 (EGFR; Log[nM] 3.5): 1%
- EGFR % Activity Set3 (EGFR; Log[nM] 3.5): 1%
- EGFR % Activity Set1 (EGFR; Log[nM] 4.0): 0%
- EGFR % Activity Set2 (EGFR; Log[nM] 4.0): 0%
- EGFR % Activity Set3 (EGFR; Log[nM] 4.0): 1%
- EGFR % Activity Set1 (EGFR; Log[nM] 4.5): 0%
- EGFR % Activity Set2 (EGFR; Log[nM] 4.5): 0%
- EGFR % Activity Set3 (EGFR; Log[nM] 4.5): 0%
- EGFR % Activity Set1 (EGFR; Log[nM] 5.0): 0%
- EGFR % Activity Set2 (EGFR; Log[nM] 5.0): 3%
- EGFR % Activity Set3 (EGFR; Log[nM] 5.0): 1%
SMILES: Clc1ccc(Nc2ncnc3[nH]ccc23)cc1Cl [Compound 5, N^4-(3,4-dichlorophenyl)-7H-pyrrolo[2,3-d]pyrimidine-4-amine]
